The results in this text go back to US5493008A, “Two non-contiguous regions contribute to nidogen binding to a single EGF-like motif of the laminin γ1 chain” (The University Of Virginia Patent Foundation, priority 1994, dated 1996).

pIC50: −log10 of the molar value. Read-outs that look alike come from different tables or passages of the source. Where a SMILES comes first, the peptide text is derived from it. Where no end group is shown, it is not given here.

As usually defined, the pIC50 is the IC50 on a negative log10 scale, so that one unit is a factor of ten.

The target of the test is T1, nidogen (Mus musculus, UniProt P10493).
T1 sequence (P10493 29-1245): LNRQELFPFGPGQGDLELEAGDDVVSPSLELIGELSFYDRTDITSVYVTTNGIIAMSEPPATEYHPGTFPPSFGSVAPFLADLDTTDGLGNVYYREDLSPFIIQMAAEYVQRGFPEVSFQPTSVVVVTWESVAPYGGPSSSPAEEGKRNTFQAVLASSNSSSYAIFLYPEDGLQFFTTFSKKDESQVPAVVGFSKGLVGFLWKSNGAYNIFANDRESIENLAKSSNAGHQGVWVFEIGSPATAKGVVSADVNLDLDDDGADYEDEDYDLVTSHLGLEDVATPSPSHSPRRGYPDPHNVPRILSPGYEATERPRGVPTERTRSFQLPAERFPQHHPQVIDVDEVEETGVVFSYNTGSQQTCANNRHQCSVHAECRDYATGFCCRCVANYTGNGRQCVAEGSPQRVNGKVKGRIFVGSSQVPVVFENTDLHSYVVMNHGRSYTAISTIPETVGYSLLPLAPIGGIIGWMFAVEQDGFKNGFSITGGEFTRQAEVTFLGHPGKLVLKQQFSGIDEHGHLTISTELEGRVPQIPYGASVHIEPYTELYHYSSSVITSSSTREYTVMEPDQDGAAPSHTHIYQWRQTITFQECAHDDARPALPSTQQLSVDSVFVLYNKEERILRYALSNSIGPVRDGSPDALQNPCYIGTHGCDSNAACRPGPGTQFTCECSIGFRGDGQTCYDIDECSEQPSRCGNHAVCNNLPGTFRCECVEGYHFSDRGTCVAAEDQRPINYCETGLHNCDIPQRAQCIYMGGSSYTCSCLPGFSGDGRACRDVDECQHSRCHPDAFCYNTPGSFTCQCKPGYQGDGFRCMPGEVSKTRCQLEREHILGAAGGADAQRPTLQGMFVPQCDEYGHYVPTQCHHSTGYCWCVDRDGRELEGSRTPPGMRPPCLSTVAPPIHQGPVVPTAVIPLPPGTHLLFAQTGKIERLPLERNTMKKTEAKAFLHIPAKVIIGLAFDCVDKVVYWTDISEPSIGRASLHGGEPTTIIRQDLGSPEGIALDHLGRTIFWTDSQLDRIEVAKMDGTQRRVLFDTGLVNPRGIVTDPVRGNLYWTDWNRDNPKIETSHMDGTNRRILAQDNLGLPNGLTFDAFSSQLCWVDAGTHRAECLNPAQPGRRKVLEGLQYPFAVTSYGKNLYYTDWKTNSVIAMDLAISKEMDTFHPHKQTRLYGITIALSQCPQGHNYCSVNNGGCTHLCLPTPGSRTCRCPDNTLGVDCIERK
Nature of the test: Radioligand competition assay: inhibition of 125I-laminin fragment P1 binding to nidogen. Particulars: for inhibitory activity in words: laminin-nidogen binding competition; for IC50 higher / less active than fragment P1: relative to laminin fragment P1. Here is the method: A radioligand competition assay was used for measurement of relative binding affinities (Mann K. et al. (1988), Eur. J. Biochem., 178, 71-80; Fox, J. W. et al. (1991), EMBO J., 10, 3137-3146). A fixed concentration of recombinant nidogen (0.2 nM) was incubated overnight at 4° C. with inhibitors at varying concentrations, followed by the addition of ^125 I-labeled laminin fragment P1 (0.01 nM; 10,000-20,000 c.p.m.) for the same incubation period. Bound and non-bound fragment P1 was then separated by antibodies against nidogen. Competitor concentrations causing 50% inhibition (IC50) were determined from dose-response profiles. […] IC50 values compared from different assays were normalized to a single fragment P1 value.
(In general: Loss of bound radioactivity is the signal in a displacement assay; it reports binding, not function.)

[1] abbreviates: Table II, synthetic loops of EGF-like repeat 4 and smaller synthetic and proteolytic fragments, read-out: IC50 (inhibitory capacity).
[2] abbreviates: Table III, amino acid replacements in heptapeptide NIDPNAV, read-out: IC50 (inhibitory capability for laminin-nidogen binding).
Setting [3] is: Table IV, recombinant mutants and chimeric structures of γ1III4, read-out: IC50 (inhibitory activity for laminin-nidogen binding).

Take `CC(C)C[C@H](NC(=O)[C@H](CS)NC(=O)[C@H](CCC(=O)O)NC(=O)CNC(=O)[C@@H](NC(=O)[C@H](CC(C)C)NC(=O)[C@H](CCCNC(=N)N)NC(=O)[C@H](CC(N)=O)NC(=O)[C@H](CS)NC(=O)[C@H](CC(N)=O)NC(=O)CNC(=O)[C@@H](NC(=O)[C@H](C)NC(=O)[C@H](CC(N)=O)NC(=O)[C@@H]1CCCN1C(=O)[C@@H](N)CC(=O)O)C(C)C)[C@@H](C)O)C(=O)O` [E2, DPNAVGNCNRLTGECL] (H-DPNAVGNCNRLTGECL-OH; C-terminus assumed): the pIC50 under setting [1] was 5.52.
Turning to `NC(=O)CC[C@H](NC(=O)[C@H](CS)NC(=O)[C@@H]1CCCN1)C(=O)N[C@@H](CS)C(=O)N[C@@H](CC(N)=O)C(=O)O` [E3, PCQCN] (H-PCQCN-OH; N-terminus assumed), the “inhibitory activity in words” value is “inactive”. Moreover, the pIC50 under setting [1] was below 4.02.
With `CC[C@H](C)[C@H](NC(=O)[C@H](CC(N)=O)NC(=O)[C@H](CC(=O)O)NC(=O)[C@H](CC(N)=O)NC(=O)[C@H](CS)NC(=O)[C@H](CCC(N)=O)NC(=O)[C@H](CS)NC(=O)[C@@H]1CCCN1)C(=O)N[C@@H](CC(=O)O)C(=O)N1CCC[C@H]1C(=O)N[C@@H](CC(N)=O)C(=O)N[C@@H](C)C(=O)N[C@H](C(=O)NCC(=O)N[C@@H](CC(N)=O)C(=O)N[C@@H](CS)C(=O)N[C@@H](CC(N)=O)C(=O)N[C@@H](CCCNC(=N)N)C(=O)O)C(C)C` [T1, PCQCNDNTDPNAVGNCNR], the “inhibitory activity in words” value is “undiminished activity”.
Consider `CC[C@H](C)[C@H](NC(=O)[C@H](CC(N)=O)NC(=O)[C@H](CC(=O)O)NC(=O)[C@H](CC(N)=O)NC(=O)[C@H](CS)NC(=O)[C@H](CCC(N)=O)NC(=O)[C@H](CS)NC(=O)[C@@H]1CCCN1)C(=O)N[C@@H](CC(=O)O)C(=O)N1CCC[C@H]1C(=O)N[C@@H](CC(N)=O)C(=O)N[C@@H](C)C(=O)N[C@H](C(=O)NCC(=O)N[C@@H](CC(N)=O)C(=O)N[C@@H](CS)C(=O)N[C@@H](CC(N)=O)C(=O)N[C@@H](CCCNC(=N)N)C(=O)N[C@@H](CC(C)C)C(=O)N[C@H](C(=O)NCC(=O)N[C@@H](CCC(=O)O)C(=O)N[C@@H](CS)C(=O)N[C@@H](CC(C)C)C(=O)O)[C@@H](C)O)C(C)C` [loop a,b, non-oxidized] (H-PCQCNDNIDPNAVGNCNRLTGECL-OH; N-terminus and C-terminus assumed), for which the “IC50 higher / less active than fragment P1” value is 5,000 fold.
Regarding `CC[C@H](C)[C@@H]1NC(=O)[C@H](CC(N)=O)NC(=O)[C@H](CC(=O)O)NC(=O)[C@H](CC(N)=O)NC(=O)[C@@H]2CSSC[C@@H](C(=O)N[C@@H](CC(C)C)C(=O)O)NC(=O)[C@H](CCC(=O)O)NC(=O)CNC(=O)[C@H]([C@@H](C)O)NC(=O)[C@H](CC(C)C)NC(=O)[C@H](CCCNC(=N)N)NC(=O)[C@H](CC(N)=O)NC(=O)[C@H](CSSC[C@H](NC(=O)[C@@H]3CCCN3)C(=O)N[C@@H](CCC(N)=O)C(=O)N2)NC(=O)[C@H](CC(N)=O)NC(=O)CNC(=O)[C@H](C(C)C)NC(=O)[C@H](C)NC(=O)[C@H](CC(N)=O)NC(=O)[C@@H]2CCCN2C(=O)[C@H](CC(=O)O)NC1=O` [loop a,b, oxidized] (HELM PEPTIDE1{P.C.Q.C.N.D.N.I.D.P.N.A.V.G.N.C.N.R.L.T.G.E.C.L}$PEPTIDE1,PEPTIDE1,2:R3-16:R3|PEPTIDE1,PEPTIDE1,4:R3-23:R3$$$V2.0), the pIC50 (read-out: IC50) was 6.40.
Consider `CC[C@H](C)[C@@H]1NC(=O)[C@@H](NC(=O)[C@H](CCCCN)NC(=O)[C@H](CC(C)C)NC(=O)[C@@H]2CSSC[C@H](NC(=O)[C@@H](N)CCC(N)=O)C(=O)N[C@@H](CC(N)=O)C(=O)N[C@@H](CC(=O)O)C(=O)N[C@@H](CC(N)=O)C(=O)N[C@@H]([C@@H](C)CC)C(=O)N[C@@H](CC(=O)O)C(=O)N3CCC[C@H]3C(=O)N[C@@H](CC(N)=O)C(=O)N[C@@H](C)C(=O)N[C@@H](C(C)C)C(=O)NCC(=O)N2)CSSC[C@@H](C(=O)N[C@@H](CC(=O)O)C(=O)O)NC(=O)[C@H](Cc2ccc(O)cc2)NC(=O)[C@H](Cc2ccccc2)NC(=O)CNC(=O)[C@H](C)NC(=O)[C@H]([C@@H](C)O)NC(=O)[C@H](CC(N)=O)NC(=O)[C@H](Cc2ccc(O)cc2)NC1=O` [loop a,c, oxidized, QCNDNIDPNAVGCLKC1YNTAGFYCD] (HELM PEPTIDE1{Q.C.N.D.N.I.D.P.N.A.V.G.C.L.K.C.I.Y.N.T.A.G.F.Y.C.D}$PEPTIDE1,PEPTIDE1,2:R3-13:R3|PEPTIDE1,PEPTIDE1,16:R3-25:R3$$$V2.0; N-terminus and C-terminus assumed), for which the “IC50 higher / less active than fragment P1” value is on record as 300 fold. For the same compound, the “higher inhibitory activity compared with loop a,b” value (relative to synthetic loop a,b peptide) was found to be 20 fold.
In the case of `CC[C@H](C)[C@@H]1NC(=O)[C@@H](NC(=O)[C@@H](N)CCCCN)CSSC[C@@H](C(=O)N[C@@H](CC(=O)O)C(=O)O)NC(=O)[C@H](Cc2ccc(O)cc2)NC(=O)[C@H](Cc2ccccc2)NC(=O)CNC(=O)[C@H](C)NC(=O)[C@H]([C@@H](C)O)NC(=O)[C@H](CC(N)=O)NC(=O)[C@H](Cc2ccc(O)cc2)NC1=O` [loop c, oxidized] (HELM PEPTIDE1{K.C.I.Y.N.T.A.G.F.Y.C.D}$PEPTIDE1,PEPTIDE1,2:R3-11:R3$$$V2.0), the pIC50 reads like this: under setting [1], below 3.70; (read-out: IC50) 3.70 to 4.05.
With `CC(C)C[C@@H]1NC(=O)[C@@H]2CCCN2C(=O)[C@H](CC(N)=O)NC(=O)CNC(=O)[C@H](Cc2ccccc2)NC(=O)[C@H](Cc2ccccc2)NC(=O)CNC(=O)[C@H](CCC(=O)O)NC(=O)[C@H](CCCCN)NC(=O)[C@@H](NC(=O)[C@@H](N)CCCNC(=N)N)CSSC[C@@H](C(=O)N[C@@H](CCCCN)C(=O)O)NC(=O)[C@H](CCCCN)NC(=O)[C@H](CC(=O)O)NC(=O)[C@H](C)NC(=O)[C@@H]2CCCN2C(=O)[C@H](CC(N)=O)NC(=O)[C@@H]2CCCN2C(=O)[C@H](C)NC1=O` [loop d, oxidized] (HELM PEPTIDE1{R.C.K.E.G.F.F.G.N.P.L.A.P.N.P.A.D.K.C.K}$PEPTIDE1,PEPTIDE1,2:R3-19:R3$$$V2.0; N-terminus and C-terminus assumed), the “inhibitory activity in words” value was “No inhibitory activity”. Moreover, the pIC50 under setting [1] is below 4.05. For the same compound, the pIC50 (read-out: IC50) was 3.70 to 4.05.
As for AVGNCNR [Th1, AVGNCNR], the “inhibitory activity in words” value is “inactive”. For the same compound, under setting [1], the pIC50 was below 4.52.
Regarding IDPNAVGN [IOPNAVGN], the pIC50 under setting [1] was 5.80.
Same read-out and setting: next, LTGECL [T2, LTGECL]: 4.92; NIDPNA [NIDPNA]: below 3.34.
In the case of NIDPNAV [NIDPNAV], the pIC50 was 6.10 under setting [1] and 6.10 (read-out: IC50).
Regarding NIDPNAVGN [NIDPNAVGN], the pIC50 reads like this: under setting [1], 6.22; (read-out: IC50) 6.22.
Take NVDPNAS [NVDPNAS]: the pIC50 under setting [2] was below 3.80.
Same read-out and setting: next, NVDPSAS [NVDPSAS]: below 3.54; NVDPSAV [NVDPSAV]: below 3.74.
For “γ1III3ab4cd: recombinant chimera: loop a,b of repeat 3 with loop c,d of repeat 4 (PCPCPGGSSCAIVPKTKEVVCTHCIYNTAGFYCDRCKEGFFGNPLAPNPADKCK)”, the pIC50 under setting [3] is 5.96.
“γ1III4: recombinant nidogen binding EGF-like repeat 4 of laminin γ1 chain domain III, 56 residues [reference compound]”: the pIC50 runs as follows: under setting [3], 10.30; (read-out: IC50) 10.30.
For “γ1III4D800,N: recombinant γ1III4 with Asp800 mutated to Asn”, under setting [3], the pIC50 was 6.00.
Take “γ1III4N802-S: recombinant γ1III4 with Asn802 mutated to Ser”: the “reduction in activity of mutant” value (relative to wild-type γ1III4) is on record as ~ 100,000 fold.
In the case of “γ1III4Y819-A: recombinant γ1III4 with Tyr819 mutated to Ala”, the negative-log IC50 (pIC50) under setting [3] is 8.52.
